Test [1] has as its system Mus musculus. Nature of the test: Anorectic activity in C57BL/6J mouse assessed as inhibition of food intake at 0.03 mg/kg/day, sc for 3 days dosed as continuous administration by infusion using osmotic pump. Format: functional. To be noted: 72 h.
Test [2] addresses T1, Neuropeptide Y receptor type 2 (Homo sapiens, UniProt P49146).
T1 sequence (P49146 whole entry): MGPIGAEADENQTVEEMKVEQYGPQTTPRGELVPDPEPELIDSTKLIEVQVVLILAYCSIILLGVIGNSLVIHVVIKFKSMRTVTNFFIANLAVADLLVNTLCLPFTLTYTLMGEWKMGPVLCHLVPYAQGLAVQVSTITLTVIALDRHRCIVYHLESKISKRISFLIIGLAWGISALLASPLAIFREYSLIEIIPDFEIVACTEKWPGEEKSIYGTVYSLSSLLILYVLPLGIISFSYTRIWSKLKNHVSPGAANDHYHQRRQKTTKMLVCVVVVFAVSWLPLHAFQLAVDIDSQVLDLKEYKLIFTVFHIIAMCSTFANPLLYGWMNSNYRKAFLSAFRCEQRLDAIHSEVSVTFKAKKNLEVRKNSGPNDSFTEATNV
Nature of the test: Displacement of [125I]-PYY from human neuropeptide Y2 receptor expressed in CHO cell membranes incubated for 60 mins by TopCount based method. On the technique in general: In a radioligand displacement assay an active substance lowers the binding of a labelled ligand.

Test [3] deals with T1, Neuropeptide Y receptor type 2. Nature of the test: Agonist activity at human neuropeptide Y2 receptor expressed in CHO cell membranes assessed as stimulation of [35S]GTPgammaS binding incubated for 120 mins by liquid scintillation counting method. Format: functional.
The test system of test [4] is Mus musculus. Nature of the test: Anorectic activity in C57BL/6J mouse assessed as inhibition of food intake at 0.1 mg/kg/day, sc for 3 days dosed as continuous administration by infusion using osmotic pump. The format is functional. Particulars: 72 h.
Test [5] deals with Mus musculus. Nature of the test: Anorectic activity in C57BL/6J mouse assessed as inhibition of food intake at 0.3 mg/kg/day, sc dosed as […] and measured after 24 hrs. The format is functional.
Test [6] relates to Mus musculus. Nature of the test: Anorectic activity in C57BL/6J mouse assessed as inhibition of food intake at 0.3 mg/kg/day, sc dosed as […] and measured after 12 hrs. The format is functional.

pEC50, pIC50: −log10 of the molar value.

Consider `CC[C@@](C)(NC(=O)[C@H](CO)NC(C)=O)C(=O)N[C@@H](CCCNC(=N)N)C(=O)N[C@@H](Cc1ccncc1)C(=O)N[C@@H](CC1CCCCC1)C(=O)NC(C)(C)C(=O)N[C@@H](CC(N)=O)C(=O)N[C@@H](CCCCN)C(=O)NC(C)(C)C(=O)N[C@H](C(=O)N[C@@H](CCCNC(=N)N)C(=O)N[C@@H](CCC(N)=O)C(=O)N[C@@H](CCCNC(=N)N)C(=O)N[C@@H](CC1CCCCC1)C(N)=O)[C@@H](C)O`, for which the inhibition in vivo (in general, the drop in the measured response relative to a control, in per cent) at 0.03 mg/kg/day in test [1] was 25%. In addition, the pIC50 – broadly, the IC50 on a negative log10 scale, so that one unit is a factor of ten – in test [2] was 9.52. The pEC50 (usually the negative decadic logarithm of the EC50, by convention in mol/L) in test [3] is 9.96. In test [4], the inhibition in vivo at 0.1 mg/kg/day is 64%.
Take `CC[C@@](C)(NC(=O)[C@H](CC(C)C)NC(=O)[C@H](CC(N)=O)NC(=O)[C@H](CC1CCCCC1)NC(=O)[C@H](CC1CCCCC1)NC(=O)[C@H](Cc1cnc[nH]1)NC(=O)[C@H](CCCNC(=N)N)NC(=O)[C@H]1CCCN1C(=O)[C@H](CO)NC(C)=O)C(=O)N[C@H](C(=O)N[C@@H](CCCNC(=N)N)C(=O)N[C@@H](CCC(N)=O)C(=O)N[C@@H](CCCNC(=N)N)C(=O)N[C@@H](CC1CCCCC1)C(N)=O)[C@@H](C)O`: in test [2], the pIC50 is 9.17. In addition, in test [3], the pEC50 was 9.77.
Consider `CC[C@](C)(NC(=O)[C@H]1C[C@H](O)CN1C(=O)[C@H](CO)NC(C)=O)C(=O)N[C@@H](Cc1ccncc1)C(=O)N[C@@H](CC1CCCCC1)C(=O)NC(C)(C)C(=O)N[C@@H](CC(N)=O)C(=O)N[C@@H](CCCCN)C(=O)NC(C)(C)C(=O)N[C@H](C(=O)N[C@@H](CCCNC(=N)N)C(=O)N[C@@H](CCC(N)=O)C(=O)N[C@@H](CCCNC(=N)N)C(=O)N[C@@H](CC1CCCCC1)C(N)=O)[C@@H](C)O`, for which, in test [1], the inhibition in vivo at 0.03 mg/kg/day amounted to 45%. This compound also gave a pIC50 in test [2] of 9.11. Also, in test [3], the pEC50 is 9.68.
Regarding `CC[C@](C)(NC(=O)[C@H](CC1CCCCC1)NC(=O)[C@H](Cc1ccncc1)NC(=O)[C@](C)(CC)NC(=O)[C@H]1CCCN1C(=O)[C@H](CO)NC(C)=O)C(=O)N[C@@H](CC(N)=O)C(=O)N[C@@H](CCCCN)C(=O)NC(C)(C)C(=O)N[C@H](C(=O)N[C@@H](CCCNC(=N)N)C(=O)N[C@@H](CCC(N)=O)C(=O)N[C@@H](CCCNC(=N)N)C(=O)N[C@@H](CC1CCCCC1)C(N)=O)[C@@H](C)O`, the inhibition in vivo at 0.03 mg/kg/day in test [1] stood at 36%. Also, the figures for the inhibition in vivo at 0.3 mg/kg/day in test [5] and in test [6] were 16% and 23%, respectively. The compound further had a pIC50 in test [2] of 9.24. For the same compound, in test [3], the negative logarithm of the EC50 (pEC50) is 9.80.
For `CC[C@](C)(NC(=O)[C@H]1CCCN1C(=O)[C@H](CO)NC(C)=O)C(=O)N[C@@H](Cc1ccncc1)C(=O)N[C@@H](CC1CCCCC1)C(=O)N[C@@H](CC(C)(C)C)C(=O)N[C@@H](CC(N)=O)C(=O)N[C@@H](CCCCN)C(=O)NC(C)(C)C(=O)N[C@H](C(=O)N[C@@H](CCCNC(=N)N)C(=O)N[C@@H](CCC(N)=O)C(=O)N[C@@H](CCCNC(=N)N)C(=O)N[C@@H](CC1CCCCC1)C(N)=O)[C@@H](C)O`, in that order: 52%, 1%, 12%, 9.40 and 9.70.
Compound `CC[C@](C)(NC(=O)[C@H](CC(C)C)NC(=O)[C@H](CC(N)=O)NC(=O)[C@H](CC1CCCCC1)NC(=O)[C@H](CC1CCCCC1)NC(=O)[C@H](Cc1cnc[nH]1)NC(=O)[C@H](CCCNC(=N)N)NC(=O)[C@H]1CCCN1C(=O)[C@H](CO)NC(C)=O)C(=O)N[C@H](C(=O)N[C@@H](CCCNC(=N)N)C(=O)N[C@@H](CCC(N)=O)C(=O)N[C@@H](CCCNC(=N)N)C(=O)N[C@@H](CC1CCCCC1)C(N)=O)[C@@H](C)O` had a pIC50 in test [2] of 8.43. For the same compound, the pEC50 in test [3] is 9.39.
In turn, `CC[C@@](C)(NC(=O)[C@H](CC1CCCCC1)NC(=O)[C@H](Cc1cnc[nH]1)NC(=O)[C@H](CCCNC(=N)N)NC(=O)[C@H]1CCCN1C(=O)[C@H](CO)NC(C)=O)C(=O)N[C@@H](CC(N)=O)C(=O)N[C@@H](CC(C)C)C(=O)NC(C)(C)C(=O)N[C@H](C(=O)N[C@@H](CCCNC(=N)N)C(=O)N[C@@H](CCC(N)=O)C(=O)N[C@@H](CCCNC(=N)N)C(=O)N[C@@H](CC1CCCCC1)C(N)=O)[C@@H](C)O` showed a pIC50 in test [2] of 8.48. Besides, the pEC50 in test [3] was 9.30.
In test [2], `CC[C@](C)(NC(=O)[C@H]1C[C@H](O)CN1C(=O)[C@H](CO)NC(=O)c1c[nH]cn1)C(=O)N[C@@H](Cc1ccncc1)C(=O)N[C@@H](CC1CCCCC1)C(=O)NC(C)(C)C(=O)N[C@@H](CC(N)=O)C(=O)N[C@@H](CCCCN)C(=O)NC(C)(C)C(=O)N[C@H](C(=O)N[C@@H](CCCNC(=N)N)C(=O)N[C@@H](CCC(N)=O)C(=O)N[C@@H](CCCNC(=N)N)C(=O)N[C@@H](CC1CCCCC1)C(N)=O)[C@@H](C)O` gave a pIC50 of 9.04. Besides, the pEC50 in test [3] was 9.77.
`CC(C)C[C@H](NC(=O)[C@H](CC(N)=O)NC(=O)[C@H](CC1CCCCC1)NC(=O)[C@H](CC1CCCCC1)NC(=O)[C@H](Cc1cnc[nH]1)NC(=O)[C@H](CCCNC(=N)N)NC(=O)[C@H]1CCCN1C(=O)[C@H](CO)NC(=O)CO)C(=O)NC(C)(C)C(=O)N[C@H](C(=O)N[C@@H](CCCNC(=N)N)C(=O)N[C@@H](CCC(N)=O)C(=O)N[C@@H](CCCNC(=N)N)C(=O)N[C@@H](CC1CCCCC1)C(N)=O)[C@@H](C)O` had a pIC50 in test [2] of 8.92. Further, in test [3], the pEC50 was 9.23.
With `CC[C@@](C)(NC(=O)[C@H](CO)NC(C)=O)C(=O)N[C@@H](CCCNC(=N)N)C(=O)N[C@@H](Cc1cnc[nH]1)C(=O)N[C@@H](CC1CCCCC1)C(=O)N[C@@H](CC1CCCCC1)C(=O)N[C@@H](CC(N)=O)C(=O)N[C@@H](CC(C)C)C(=O)NC(C)(C)C(=O)N[C@H](C(=O)N[C@@H](CCCNC(=N)N)C(=O)N[C@@H](CCC(N)=O)C(=O)N[C@@H](CCCNC(=N)N)C(=O)N[C@@H](CC1CCCCC1)C(N)=O)[C@@H](C)O`, the pIC50 in test [2] was 8.62. The pEC50 in test [3] was 9.55.
Regarding `CC(=O)N[C@@H](CO)C(=O)N1CCC[C@@H]1C(=O)NC(C)(C)C(=O)N[C@@H](Cc1ccncc1)C(=O)N[C@@H](CC1CCCCC1)C(=O)NC(C)(C)C(=O)N[C@@H](CC(N)=O)C(=O)N[C@@H](CCCCN)C(=O)NC(C)(C)C(=O)N[C@H](C(=O)N[C@@H](CCCNC(=N)N)C(=O)N[C@@H](CCC(N)=O)C(=O)N[C@@H](CCCNC(=N)N)C(=O)N[C@@H](CC1CCCCC1)C(N)=O)[C@@H](C)O`, the pIC50 in test [2] is 8.35. In addition, the pEC50 in test [3] was 9.68. Also, in test [4], the inhibition in vivo at 0.1 mg/kg/day was 50%.
`CC[C@](C)(NC(=O)[C@H](CO)NC(C)=O)C(=O)N[C@@H](CCCNC(=N)N)C(=O)N[C@@H](Cc1cnc[nH]1)C(=O)N[C@@H](CC1CCCCC1)C(=O)N[C@@H](CC1CCCCC1)C(=O)N[C@@H](CC(N)=O)C(=O)N[C@@H](CC(C)C)C(=O)NC(C)(C)C(=O)N[C@H](C(=O)N[C@@H](CCCNC(=N)N)C(=O)N[C@@H](CCC(N)=O)C(=O)N[C@@H](CCCNC(=N)N)C(=O)N[C@@H](CC1CCCCC1)C(N)=O)[C@@H](C)O` had a pIC50 in test [2] of 8.74. Besides, the pEC50 in test [3] is 9.46.
For the compound `CC[C@](C)(NC(=O)[C@H](CC1CCCCC1)NC(=O)[C@H](Cc1ccncc1)NC(=O)[C@](C)(CC)NC(=O)[C@H]1C[C@H](O)CN1C(=O)[C@H](CO)NC(=O)c1c[nH]cn1)C(=O)N[C@@H](CC(N)=O)C(=O)N[C@@H](CCCCN)C(=O)NC(C)(C)C(=O)N[C@H](C(=O)N[C@@H](CCCNC(=N)N)C(=O)N[C@@H](CCC(N)=O)C(=O)N[C@@H](CCCNC(=N)N)C(=O)N[C@@H](CC1CCCCC1)C(N)=O)[C@@H](C)O`, the inhibition in vivo at 0.03 mg/kg/day in test [1] was found to be 49%. In addition, the pIC50 in test [2] is 9.36. The pEC50 in test [3] is 9.89.
Take `CC[C@](C)(NC(=O)[C@H](CC1CCCCC1)NC(=O)[C@H](Cc1cnc[nH]1)NC(=O)[C@H](CCCNC(=N)N)NC(=O)[C@H]1CCCN1C(=O)[C@H](CO)NC(C)=O)C(=O)N[C@@H](CC(N)=O)C(=O)N[C@@H](CC(C)C)C(=O)NC(C)(C)C(=O)N[C@H](C(=O)N[C@@H](CCCNC(=N)N)C(=O)N[C@@H](CCC(N)=O)C(=O)N[C@@H](CCCNC(=N)N)C(=O)N[C@@H](CC1CCCCC1)C(N)=O)[C@@H](C)O`: the pIC50 in test [2] is 9.35. The pEC50 in test [3] was 9.74.
For `CC(C)C[C@H](NC(=O)[C@H](CC(N)=O)NC(=O)[C@H](CC1CCCCC1)NC(=O)[C@H](CC1CCCCC1)NC(=O)[C@H](Cc1cnc[nH]1)NC(=O)[C@H](CCCNC(=N)N)NC(=O)[C@H]1CCCN1C(=O)[C@H](CO)NC(=O)c1c[nH]cn1)C(=O)NC(C)(C)C(=O)N[C@H](C(=O)N[C@@H](CCCNC(=N)N)C(=O)N[C@@H](CCC(N)=O)C(=O)N[C@@H](CCCNC(=N)N)C(=O)N[C@@H](CC1CCCCC1)C(N)=O)[C@@H](C)O`, in that order: 9.29 and 9.74.
With `CC[C@](C)(NC(=O)[C@H]1C[C@H](O)CN1C(=O)[C@H](CO)NC(C)=O)C(=O)N[C@@H](Cc1ccncc1)C(=O)N[C@@H](CC1CCCCC1)C(=O)N[C@@H](CC(C)(C)C)C(=O)N[C@@H](CC(N)=O)C(=O)N[C@@H](CCCCN)C(=O)NC(C)(C)C(=O)N[C@H](C(=O)N[C@@H](CCCNC(=N)N)C(=O)N[C@@H](CCC(N)=O)C(=O)N[C@@H](CCCNC(=N)N)C(=O)N[C@@H](CC1CCCCC1)C(N)=O)[C@@H](C)O`, the inhibition in vivo at 0.03 mg/kg/day in test [1] was found to be 27%. In addition, the figures for the inhibition in vivo at 0.3 mg/kg/day in test [5] and in test [6] were 8% and 4%, respectively. Besides, the pIC50 in test [2] was 9.24. In addition, in test [3], the pEC50 is 9.89.

The values are drawn from ChEMBL document CHEMBL4177573 (Bioorg Med Chem, 2017).
